Entries after “also recorded” stand apart in the source; their conditions may differ. Where two headings read alike, the source gives them in different places.
Legend:
[1] = test system: brain-derived PHA-expanded cells; test: Determination of precursor frequency by limiting dilution; assay type: cell-based, human; details: fraction of T cells responding
Procedure: Frequencies of VP1/VLP-specific cells were determined by limiting dilution. 20, 200, 2.000 or 20.000 brain-derived PHA-expanded cells were seeded in quadruplicates in 96-well U-botton microtiter plates with 1×10^5 autologous irradiated PBMC with or without VP1/VLP protein. After 72 hours, proliferation was measured by methyl-^3H-thymidine incorporation. Frequencies were calculated as previously described (Taswell, 1981). Observed data were: r, the number of negatively responding cultures or wells of each dose i; n, the total number of wells per dose i, and X, the number of cells in the dose i. Calculated data was: pi=ri/ni, the fraction of negatively responding cultures of each dose i. The frequency was calculated using the following formula: f=−(ln pi)/λi.

[2] = test system: brain-derived PHA-expanded cells; assay type: cell-based, human
[3] = test system: brain-derived VP1/VLP-specific T cell clones; test: Fine specificity of brain-derived VP1/VLP-specific T cell clones (TCC); assay type: cell-based, human; details: for recognition by brain-derived VP1-specific TCC: each TCC tested against 64 15-mer peptides spanning VP1
Procedure: 2.5×10^4 brain-derived PHA-expanded cells were seeded in 96-well U-botton microtiter plates with 1×10^5 autologous irradiated PBMC with or without VP1/VLP protein. After 48 hours of culture, plates were split into mother and daughter plates. Proliferation was measured in daughter plates by methyl-^3H-thymidine incorporation. VP1/VLP-responsive cultures were identified in mother plates, and IL-2 was added every 3-4 days until day 12. T cell clones (TCC) were established from positive cultures by seeding cells from VP1/VLP-responsive wells under limiting dilution conditions at 0.3 and 1 cell/well in 96-well U-botton microtiter plates, and addition of 2×10^5 allogeneic, irradiated PBMC and 1 μg/ml of PHA-L in complete RPMI. After 24 h, 20 U/ml of human recombinant IL-2 were added. VP1/VLP specificity was then confirmed seeding 2.5×10^4 cells from growing colonies with autologous irradiated PBMC with or without VP1/VLP protein for 72 h. Specific cultures were restimulated every two weeks with 1 μg/ml PHA-L, 20 U/ml hrIL-2 and allogeneic irradiated PBMC, and hrIL2 was added every 3-4 days.
Prior data had shown that CD4+ differentiate into certain T helper phenotypes such as Th1 cells (IFN-gamma producers), Th17 cells secreting IL-17, Th2 cells expressing the signature cytokine IL-4, or T regulatory cells based on the expression of certain transcription factors (Zhu et al., 2010). The differentiation into Th1 or Th2 cells is considered mutually exclusive and controlled by the transcription factors T-bet (Th1) and Gata-3 (Th2) (Zhu et al., 2010). […] VP1/VLP-specific TCC were generated as described in material and methods. Initially 21 VP1/VLP-specific single cell-derived cultures were generated by limiting dilution and characterized for TCRV beta expression, functional phenotype and fine specificity (Table 2). This characterization allowed the identification of 11 presumed different TCC. The number of single cell growing cultures corresponding to each TCC gives an idea about the frequency of each TCC in the brain infiltrate (FIG. 3a). TCC-4 was most abundant and represented by 5 colonies emerging from single growing wells, followed by TCC-2 with 3 single cell growing cultures, TCC-1, -8, -9 and -10 with 2 single cell growing cultures and finally TCC-3, -5, -6, -7 and -11 with only 1 single cell growing culture. […] Taking into account both the number of different TCC recognizing a specific peptide and the frequency of each TCC in the brain infiltrate the immunodominant peptides recognized by VP1 specific brain infiltrating TCC were VP134, VP174, VP1319 and VP1335 confirming the fine specificity obtained using the brain-derived bulk cell population (FIG. 3c). […] For three of the immunodominant peptides (VP134, VP1319 and VP1335) we found TCC with both phenotypes. The T helper phenotype of Th1-2 and Th1 TCC was confirmed my measuring IL-4 and IFN-gamma protein secretion by ELISA and by determining the expression of mRNAs of the transcription factors Gata3 and T-bet. Th1-2 TCC (n=5) secreted IL-4 in addition to IFN-gamma, while IL-4 secretion was barely detectable in Th1 TCC (n=6) (FIG. 6c). Cytokine secretion profiles were not due to stimulation with PHA, since the same stable patterns were observed after specific stimulation with VP1/VLP protein by intracellular cytokine staining or ELISA measurements from culture supernatants. Transcription factor expression confirmed the phenotype of the TCC. […]

[4] = test system: CSF-derived PHA-expanded cells; assay type: cell-based, human
[5] = test system: peripheral blood-derived PHA-expanded cells; assay type: cell-based, human
unmanipulated PBMC = assay type: cell-based, human
JCV [6] = test: Individual healing attempt: therapeutic vaccination of PML patients with VP1, imiquimod and IL-7; assay type: in vivo, human; details: patient with idiopathic CD4+ lymphopenia and PML, s.c. VP1 + dermal imiquimod + IL-7
Procedure: An individual healing attempt was performed in a patient with idiopathic CD4+ lymphopenia, a rare constitutive immunodeficiency, who developed PML (referred to as “patient Hamburg” in FIG. 11). The patient had been healthy, i.e. not experienced unusual or frequent infections, throughout their life, and in February 2010 was hospitalized with signs of an encephalitis of unknown origin. They were thoroughly worked up, and a diagnosis of suspected EBV-related encephalitis was made. Following transient improvement during antiviral therapy, they deteriorated further albeit slowly. […] In parallel, the inventors found a low CD4+ T cell count (around 300/microliter) as well as a CD4+/CD8+ ratio of 0.5 or less, which are both consistent with the diagnosis of idiopathic CD4+ lymphopenia. In addition, in vitro experiments in the laboratory documented an absent T cell response to JCV virus VP1 in peripheral blood mononuclear cells and an almost complete absence of naïve CD4+ T cells. Following these observations, the inventors reasoned that the patient probably had developed PML based on a pre-existing and probably genetically determined low CD4+ number, which became further accentuated by entirely physiological immune involution, which sets in and increases above 50 years of age.
The vaccination approach in the above patient included the following steps (for timing of vaccinations and tests see scheme below): Subcutaneous injection with the entire recombinant major capsid protein VP1 (provided by the Life Science Inkubator, Bonn) in combination with a dermally applied TLR7 agonist (imiqimod, Aldara; commercially available) and i.v. recombinant IL-7 (Cytheris). The VP1 protein was administered in the form of virus-like particles (VLP), as the recombinantly expressed VP1 protein associated to such particles under the conditions used herein.
Another individual healing attempt was performed in a patient with breast cancer who received chemotherapy and developed acute myeloid leukaemia (AML) as a side effect of the chemotherapy. The patient then received an autologous and allogeneic hematopoietic stem cell transplant as treatment of the AML and subsequently developed acute graft-versus-host disease (grade IV). […] This case is referred to as “patient Zurich” in FIG. 11. Both patients were treated by recombinant IL-7 (s.c.). 2 days later, the first dose of VP1 (s.c. 1 mg, imiquimod cream on the skin) was administered. 2 days after the first dose of VP1, the second dose of rIL-7 was given.
On day 12 after the first IL-7 dose, the patients received a second vaccination with VP1 s.c. plus imiquimod, and in this case simultaneously rIL-7. At week 6, a third dose of VP1/imiquimod and a fourth dose of rIL-7 were administered. […] A stimulation index of >2 is considered a positive response.

[7] = test system: peripheral blood mononuclear cells (PBMC); test: 3H-thymidine incorporation assay of patient PBMC with VP1; assay type: cell-based, human
VP1-specific T-cells = test: Flow cytometry characterization of VP1-specific T cells of the vaccinated patient; assay type: cell-based, human
JCV [8] = details: cited from earlier work
[9] = recombinant IL-7 together with antiviral drugs, case of CD4+ lymphopenia; cited from earlier work

For “4: 15-mer JCV Agno peptide starting at amino acid 25; likely SEQ ID NO 1 (image row of Table 1) (AQRILIFLLEFLLDF; JC virus) [Peptide 4]”, the “precursor frequency of peptide-specific T cells” value [1] was 1/14492.

With “20: 15-mer VP1 peptide starting at amino acid 34; likely SEQ ID NO 2 (image row of Table 1) (VDSITEVECFLTPEM; JC virus) [Peptide 20]” the “stimulation index (SI), individual JCV peptides” value ([2]; brain-derived PHA-expanded cells, individual peptides at 10 μM, 72 hours, listed as VP134) was “strongest response”, the “immunodominance among VP1 specific brain infiltrating TCC” value ([3]; by number of TCC recognizing the peptide and frequency of each TCC) was “immunodominant” and the “recognition by brain-derived VP1-specific TCC” value (“recognition” below) [3] was “recognized by TCC-1 and -2”.

With “23: 15-mer VP1 peptide starting at amino acid 54; likely SEQ ID NO 3 (image row of Table 1) [Peptide 23]” the “recognition” value [3] was “recognized by TCC-3”.

In the case of “Tetanus toxoid [TTx, reference compound]”, the “stimulation index (SI)” value [2] is reported as “no response”, the “stimulation index (SI)” value [4] is reported as 14 and the “stimulation index (SI)” value [5] is reported as 6.5. For the same molecule, the proliferative response (unmanipulated PBMC) was “significantly stronger response”.

For “VP1/VLP: recombinant JCV major capsid protein VP1 forming virus-like particles; VP1 and VLP used interchangeably”, the “stimulation index (SI)” value ([2]; brain-derived PHA-expanded T cells, VP1/VLP 2 μg/ml, TTx 5 μg/ml, 72 hours) was over 600, the “stimulation index (SI)” value ([4]; CSF-derived PHA-expanded cells, VP1/VLP 2 μg/ml, TTx 5 μg/ml, 72 hours) was 7 and the “stimulation index (SI)” value ([5]; PHA-expanded PBMC, VP1/VLP 2 μg/ml, TTx 5 μg/ml, 72 hours) was “negative”. For the same molecule, the “CSF cell counts after vaccination” value (JCV [6]) was “slightly elevated CSF cell counts”, the “JCV viral load after vaccination” value (JCV [6]) was 0 and the “brain MRI imaging after vaccination” value (JCV [6]; listed as VP1) was “slight contrast enhancement around the PML lesions”. For the same molecule, the “clinical course after vaccination” value (JCV [6]; listed as VP1) was “clinical improvement with slight delay; also recorded: clinically improving”, the “immune response against JCV after vaccination (stimulation index, >2 positive)” value ([7]; patient Hamburg and patient Zurich, PBMC 1×10e5 cells/well with VP1/VLP, 7 days, VP1 s.c. 1 mg + imiquimod + rIL-7) was “positive immune response against JCV” and the “T cell response to JCV VP1 in PBMC before vaccination” value ([7]; patient with idiopathic CD4+ lymphopenia and PML, before vaccination) was “absent”. The “in vitro proliferative response against JCV VP1 after vaccination” value ([7]; patient with idiopathic CD4+ lymphopenia and PML, s.c. VP1 + dermal imiquimod + IL-7) was “in vitro proliferative response against JCV VP1 after only two vaccinations”, the “cell type proliferating after VP1 stimulus” value (VP1-specific T-cells; 6 weeks after immunization) was “Only CD4+ cells proliferate” and the “cytokine expression of CD4+ T cells after VP1 stimulation” value (VP1-specific T-cells; antigen day 0, restimulated day 6, intracellular cytokine staining, FACS) was “produce IFN-gamma after VP1 stimulation”. For the same molecule, the “immune response after vaccination with Freund's Complete Adjuvant (FCA)” value (JCV [8]; with FCA) was “induces an immune response” and the “immune response after vaccination without adjuvant” value (JCV [8]; without adjuvant) was “not immunogenic”.

For “VP191: 15-mer VP1 peptide starting at amino acid 91; likely peptide 31, SEQ ID NO 11 (LNEDLTCGNILMWEA; JC virus)”, the “recognition” value [3] was “recognized by TCC-5”.

For “VP1143: 15-mer VP1 peptide starting at amino acid 143; likely peptide 43, SEQ ID NO 23 (HFFSVGGEALELQGV; JC virus)”, the “recognition” value [3] was “recognized by TCC-6”.

B1: recombinant IL-7: recombinant IL-7 (Cytheris) (protein, UniProt P13232 26-177, looked up)
Interleukin-7: DCDIEGKDGKQYESVLMVSIDQLLDSMKEIGSNCLNNEFNFFKRHICDANKEGMFLFRAARKLRQFLKMNSTGDFDLHLLKVSEGTTILLNCTGQVKGRKPAALGEAQPTKSLEENKSLKEQKKLNDLCFLKRLLQEIKTCWNKILMGTKEH
In the case of B1, the clinical outcome [9] is listed as “substantial improvement”.

Reference: patent US9738690B2, “Polyoma virus JC peptides and proteins in vaccination and diagnostic applications” (UNIVERSITAET ZUERICH, priority 2011, dated 2017)
